One assay concerns the target T1, HDAC6 (Homo sapiens, UniProt Q9UBN7).
T1 sequence (Q9UBN7 1-1215): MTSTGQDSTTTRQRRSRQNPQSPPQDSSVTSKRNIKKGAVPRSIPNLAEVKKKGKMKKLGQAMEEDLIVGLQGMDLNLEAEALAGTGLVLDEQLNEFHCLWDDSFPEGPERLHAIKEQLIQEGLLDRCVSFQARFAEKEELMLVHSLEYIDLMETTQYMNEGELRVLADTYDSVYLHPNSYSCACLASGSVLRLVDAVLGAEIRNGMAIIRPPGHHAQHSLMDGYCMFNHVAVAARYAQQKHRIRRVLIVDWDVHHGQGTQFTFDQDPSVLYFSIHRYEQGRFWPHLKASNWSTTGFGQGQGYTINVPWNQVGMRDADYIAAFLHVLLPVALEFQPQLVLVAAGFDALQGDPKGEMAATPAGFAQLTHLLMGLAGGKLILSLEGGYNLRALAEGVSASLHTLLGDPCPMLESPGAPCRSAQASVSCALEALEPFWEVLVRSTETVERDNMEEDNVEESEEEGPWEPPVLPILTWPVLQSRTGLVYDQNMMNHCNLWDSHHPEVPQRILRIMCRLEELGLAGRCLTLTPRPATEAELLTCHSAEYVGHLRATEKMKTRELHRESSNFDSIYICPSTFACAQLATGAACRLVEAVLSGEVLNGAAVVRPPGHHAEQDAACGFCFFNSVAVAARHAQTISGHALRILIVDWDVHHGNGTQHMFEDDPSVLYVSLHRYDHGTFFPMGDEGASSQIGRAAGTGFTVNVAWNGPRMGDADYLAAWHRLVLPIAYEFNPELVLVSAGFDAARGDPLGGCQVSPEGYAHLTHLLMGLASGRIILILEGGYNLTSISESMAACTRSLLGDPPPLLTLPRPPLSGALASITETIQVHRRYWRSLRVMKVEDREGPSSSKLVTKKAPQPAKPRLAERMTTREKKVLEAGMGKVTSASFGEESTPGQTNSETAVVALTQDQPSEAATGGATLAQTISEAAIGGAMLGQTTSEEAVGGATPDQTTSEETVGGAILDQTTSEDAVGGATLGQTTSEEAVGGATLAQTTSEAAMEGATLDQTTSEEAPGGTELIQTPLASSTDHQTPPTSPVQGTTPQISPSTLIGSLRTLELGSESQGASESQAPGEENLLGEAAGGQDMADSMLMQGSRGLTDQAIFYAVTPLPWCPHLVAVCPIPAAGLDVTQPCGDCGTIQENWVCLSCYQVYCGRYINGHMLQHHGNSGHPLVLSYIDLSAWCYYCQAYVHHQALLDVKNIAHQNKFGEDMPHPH
The experiment in a line: HDAC6 enzymatic inhibition assay. The class given is biochemical.

For a further assay, the target named is T2, HDAC11 (Homo sapiens, UniProt Q96DB2).
T2 sequence (Q96DB2 1-347): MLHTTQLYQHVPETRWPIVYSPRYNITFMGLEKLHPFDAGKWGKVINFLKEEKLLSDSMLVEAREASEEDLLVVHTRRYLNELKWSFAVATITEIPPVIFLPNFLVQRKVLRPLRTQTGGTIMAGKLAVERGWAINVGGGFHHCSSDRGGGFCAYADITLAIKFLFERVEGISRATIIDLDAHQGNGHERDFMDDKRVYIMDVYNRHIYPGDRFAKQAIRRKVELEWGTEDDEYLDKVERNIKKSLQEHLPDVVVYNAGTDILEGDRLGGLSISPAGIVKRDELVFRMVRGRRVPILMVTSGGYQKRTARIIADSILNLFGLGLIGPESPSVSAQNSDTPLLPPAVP
Put plainly: HDAC11 enzymatic inhibition assay.

For another assay, the target named is HDAC5 (Homo sapiens, UniProt Q9UQL6). The experiment in a line: HDAC5 enzymatic inhibition assay.
In another assay the test system is mutant HSPB1 DRG neurons. Put plainly: Mitochondrial axonal transport in mutant HSPB1 DRG neurons. The class given is cell-based, mouse. To be noted: DRG neurons from transgenic mutant HSPB1 mice, 100 nM overnight.
The next assay concerns the target HDAC1 (Homo sapiens, UniProt Q13547). Put plainly: HDAC1 enzymatic inhibition assay. It counts as biochemical. To be noted: HDAC1 IC50, singlet 10-dose IC50 mode, 3-fold serial dilution starting at 100 μM.
For assay [1], the system named is acetylated histone 3 in N2a cells. The experiment in a line: Acetylated histone 3/histone 4 ratio in N2a cells by Western blot. It counts as cell-based, mouse. To be noted: overnight, vehicle = 1.00. In general terms: A western blot detects proteins with antibodies after separation by electrophoresis.
The target of another assay is T3, HDAC7 (Homo sapiens, UniProt Q8WUI4).
T3 sequence (Q8WUI4 1-952): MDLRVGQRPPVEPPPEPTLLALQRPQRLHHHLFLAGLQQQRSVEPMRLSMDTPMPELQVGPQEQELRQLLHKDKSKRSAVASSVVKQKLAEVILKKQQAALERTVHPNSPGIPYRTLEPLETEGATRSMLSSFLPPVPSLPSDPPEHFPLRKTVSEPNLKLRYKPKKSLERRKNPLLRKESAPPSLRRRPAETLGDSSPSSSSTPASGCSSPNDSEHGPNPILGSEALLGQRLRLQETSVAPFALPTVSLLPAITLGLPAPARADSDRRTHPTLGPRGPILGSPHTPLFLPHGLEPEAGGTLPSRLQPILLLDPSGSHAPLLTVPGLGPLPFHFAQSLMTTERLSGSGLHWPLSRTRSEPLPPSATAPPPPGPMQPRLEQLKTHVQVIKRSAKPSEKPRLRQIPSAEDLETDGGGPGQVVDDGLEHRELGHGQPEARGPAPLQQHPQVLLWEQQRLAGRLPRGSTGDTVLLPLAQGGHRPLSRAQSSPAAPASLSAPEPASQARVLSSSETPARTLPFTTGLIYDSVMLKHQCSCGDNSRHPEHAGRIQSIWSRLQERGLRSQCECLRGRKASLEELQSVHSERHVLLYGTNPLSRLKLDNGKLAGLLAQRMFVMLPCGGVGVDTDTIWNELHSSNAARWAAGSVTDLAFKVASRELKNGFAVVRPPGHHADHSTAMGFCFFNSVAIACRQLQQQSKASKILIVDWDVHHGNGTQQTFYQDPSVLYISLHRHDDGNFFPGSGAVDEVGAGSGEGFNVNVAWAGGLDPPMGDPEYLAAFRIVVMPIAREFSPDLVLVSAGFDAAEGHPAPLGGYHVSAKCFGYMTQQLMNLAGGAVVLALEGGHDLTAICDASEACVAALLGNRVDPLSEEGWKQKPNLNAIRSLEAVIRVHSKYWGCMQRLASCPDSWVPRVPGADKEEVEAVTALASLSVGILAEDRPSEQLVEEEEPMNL
The experiment in a line: HDAC7 enzymatic inhibition assay.

A further assay deals with HDAC4 (Homo sapiens, UniProt P56524). The experiment in a line: HDAC4 enzymatic inhibition assay.

“And” between values parts separate entries of the source, which are not always exact repeats. Identical values can stand only once.

The source of these data is publication PMC4775085 (ACS chemical neuroscience, 2015).

Chain of HDAC4 (P56524 whole entry): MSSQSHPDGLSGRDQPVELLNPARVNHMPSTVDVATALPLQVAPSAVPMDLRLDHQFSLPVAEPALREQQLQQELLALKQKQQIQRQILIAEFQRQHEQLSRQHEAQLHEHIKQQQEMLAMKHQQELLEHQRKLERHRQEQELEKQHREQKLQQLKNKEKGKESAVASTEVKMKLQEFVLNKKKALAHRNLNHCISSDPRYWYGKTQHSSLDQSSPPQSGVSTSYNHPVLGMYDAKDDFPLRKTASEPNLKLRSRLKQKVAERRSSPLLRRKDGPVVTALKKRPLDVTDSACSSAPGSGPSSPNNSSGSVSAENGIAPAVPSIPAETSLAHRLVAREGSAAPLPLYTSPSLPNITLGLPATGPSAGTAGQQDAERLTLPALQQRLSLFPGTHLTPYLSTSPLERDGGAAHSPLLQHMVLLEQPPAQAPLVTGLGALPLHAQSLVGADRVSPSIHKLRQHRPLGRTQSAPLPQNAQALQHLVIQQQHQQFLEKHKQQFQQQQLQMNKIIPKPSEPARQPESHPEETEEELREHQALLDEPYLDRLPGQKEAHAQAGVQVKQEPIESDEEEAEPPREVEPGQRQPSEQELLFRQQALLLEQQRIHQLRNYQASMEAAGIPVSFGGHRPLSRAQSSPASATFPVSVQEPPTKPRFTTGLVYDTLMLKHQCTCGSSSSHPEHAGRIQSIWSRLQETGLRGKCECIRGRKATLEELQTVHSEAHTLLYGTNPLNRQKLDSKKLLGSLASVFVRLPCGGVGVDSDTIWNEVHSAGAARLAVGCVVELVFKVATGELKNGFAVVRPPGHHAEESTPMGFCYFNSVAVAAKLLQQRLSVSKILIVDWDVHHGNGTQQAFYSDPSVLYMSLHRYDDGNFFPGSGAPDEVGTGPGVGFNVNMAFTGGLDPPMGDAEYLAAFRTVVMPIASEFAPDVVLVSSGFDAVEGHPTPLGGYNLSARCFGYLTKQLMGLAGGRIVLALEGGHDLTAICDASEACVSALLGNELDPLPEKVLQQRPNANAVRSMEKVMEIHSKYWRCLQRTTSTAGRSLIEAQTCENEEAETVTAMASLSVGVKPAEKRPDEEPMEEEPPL
Chain of HDAC5 (Q9UQL6 whole entry): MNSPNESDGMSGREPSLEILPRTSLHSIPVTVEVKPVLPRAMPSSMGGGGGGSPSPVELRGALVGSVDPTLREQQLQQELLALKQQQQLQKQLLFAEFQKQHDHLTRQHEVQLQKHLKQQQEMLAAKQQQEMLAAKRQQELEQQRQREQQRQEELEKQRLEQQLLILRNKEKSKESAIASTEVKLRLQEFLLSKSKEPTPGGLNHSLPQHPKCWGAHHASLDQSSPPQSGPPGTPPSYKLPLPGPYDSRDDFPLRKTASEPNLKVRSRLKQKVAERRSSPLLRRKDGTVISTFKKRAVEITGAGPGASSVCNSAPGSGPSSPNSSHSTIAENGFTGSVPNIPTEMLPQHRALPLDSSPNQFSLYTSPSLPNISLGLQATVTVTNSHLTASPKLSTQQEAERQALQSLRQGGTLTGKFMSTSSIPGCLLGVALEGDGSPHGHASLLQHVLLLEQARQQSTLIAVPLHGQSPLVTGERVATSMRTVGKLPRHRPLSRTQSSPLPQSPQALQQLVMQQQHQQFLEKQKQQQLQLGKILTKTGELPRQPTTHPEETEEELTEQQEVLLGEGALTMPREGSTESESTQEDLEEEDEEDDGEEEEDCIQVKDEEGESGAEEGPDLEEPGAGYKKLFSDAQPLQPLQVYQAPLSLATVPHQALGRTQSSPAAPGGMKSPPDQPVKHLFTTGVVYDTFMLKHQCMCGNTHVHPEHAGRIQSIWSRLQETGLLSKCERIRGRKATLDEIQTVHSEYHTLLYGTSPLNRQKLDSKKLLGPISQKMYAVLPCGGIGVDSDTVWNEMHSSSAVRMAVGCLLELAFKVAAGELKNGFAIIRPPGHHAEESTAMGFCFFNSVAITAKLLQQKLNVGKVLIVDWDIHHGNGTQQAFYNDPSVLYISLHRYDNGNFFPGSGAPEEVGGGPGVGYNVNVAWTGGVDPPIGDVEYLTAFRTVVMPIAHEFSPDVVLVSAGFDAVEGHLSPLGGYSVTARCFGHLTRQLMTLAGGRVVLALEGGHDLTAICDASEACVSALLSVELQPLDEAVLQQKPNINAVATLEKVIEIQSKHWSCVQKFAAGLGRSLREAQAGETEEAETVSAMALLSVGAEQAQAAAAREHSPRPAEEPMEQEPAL
Chain of HDAC1 (Q13547 whole entry): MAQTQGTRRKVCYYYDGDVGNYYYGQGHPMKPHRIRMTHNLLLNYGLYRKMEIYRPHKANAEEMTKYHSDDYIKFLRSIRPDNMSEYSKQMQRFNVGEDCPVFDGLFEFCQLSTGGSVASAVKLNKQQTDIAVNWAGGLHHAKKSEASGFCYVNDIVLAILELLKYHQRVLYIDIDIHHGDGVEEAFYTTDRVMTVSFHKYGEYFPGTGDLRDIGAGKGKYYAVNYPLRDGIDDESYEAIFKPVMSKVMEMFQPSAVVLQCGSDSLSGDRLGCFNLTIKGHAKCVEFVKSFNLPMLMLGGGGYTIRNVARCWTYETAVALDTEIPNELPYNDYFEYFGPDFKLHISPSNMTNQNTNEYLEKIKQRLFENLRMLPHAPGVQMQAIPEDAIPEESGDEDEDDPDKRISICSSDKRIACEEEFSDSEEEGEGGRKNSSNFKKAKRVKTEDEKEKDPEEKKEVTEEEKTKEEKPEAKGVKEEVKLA

What is called IC50 is the concentration needed to halve the response being measured. A lower IC50 goes with inhibition by little substance. As for `Cc1nc2ccc(F)cc2n1Cc1ccc(C(=O)NO)cc1` [30a, 4-[(6-Fluoro-2-methyl-1-benzimidazolyl)methyl]-N-hydroxybenzamide], the IC50 was 3.12 nM at HDAC6 (HDAC6 IC50, singlet 10-dose IC50 mode, 3-fold serial dilution starting at 1 μM); 5 nM and 5.2 nM against HDAC6 (IC50 (nM) HDAC6, mean of two experiments ± standard deviation, 10-point enzymatic assay starting from 30 μM, 3-fold serial dilution); 7.49 µM against HDAC11; 0.397 µM on HDAC5; 4.36 µM against HDAC1; 0.211 µM against HDAC7. Besides, at HDAC4, half-maximal inhibition (IC50) required 1.46 µM. For the same compound, the “Selectivity HDAC1/HDAC6” value at HDAC6 (ratio of HDAC1 and HDAC6 IC50 of Table 1 (fold)) was 562. Besides, the “mitochondrial axonal transport (number of moving mitochondria per 100 μm of neurite)” value in the assay with mutant HSPB1 DRG neurons is recorded as “able to restore the movement of mitochondria”. Moreover, in assay [1], the “ratio acetylated H3/H4 (1 μM) mean” value is “did not alter the acetylation of histone 3”.
